Data set [1] in a line: Determination of pharmacokinetic parameters in rats after oral gavage. The class given is in vivo, rat. The note with it: female rats; for AUC (area under concentration vs. time curve, 0–24 h): parent triazolone measured in plasma; for concentration at 2 h / concentration at 6 h: rat, plasma; for concentration at 2 h: read-out: Cp (2 h) plasma concentration; for concentration at 6 h: read-out: Cp (6 h) plasma concentration. How it is done:
Intact female rats weighing 200-250 g were used. Groups of three or five rats were used for each dose level of an experimental compound and one rat was used as a vehicle control. Animals were allowed normal access to chow and water throughout the experiment. The test substance was formulated as an aqueous suspension containing hydroxypropyl cellulose, polysorbate 80 and benzyl alcohol adjusted to pH 3.5 with HCl or NaOH at a dose equivalent to (0.127 mmol) and was administered orally by gavage. A blood sample (0.3 mL) was collected from the treated rats at, 2, 4, 6 and 8 h from the orbital sinus and at 24 h by cardiac puncture. A sample of at least 0.3 mL of blood was withdrawn from the untreated animals 3 h after dosing. Potassium oxalate/NaF and lithium heparin were added to the samples which were stored on ice during sampling procedure. The samples were spun in a refrigerated centrifuge at […] as soon as possible and the plasma samples were stored −20° C. immediately after centrifugation and later transferred to a −80° C. freezer until analysis. Aliquots of plasma (0.05 mL) were mixed with 0.35 mL of an internal standard (and 0.05 mL of acetonitrile containing 0.1% formic acid. A set of calibration standards was prepared by mixing 0.05-mL aliquots of plasma from untreated rats with 0.05-mL aliquots of standard solution in acetonitrile containing 0.1% formic acid and 0.35-mL aliquots of the internal standard in acetonitrile containing 0.1% formic acid). Each plasma sample and calibration standard was vortexed thoroughly and then centrifuged (3000×g) at 4° C. for 20 min to precipitate the protein. Each supernatant from centrifugation was transferred into a separate injection vial for LC/MS/MS analysis.

Where two headings read alike, the source gives them in different places.

In the case of `Cn1c(Cc2ccc(Cl)c(Oc3cc(C#N)cc(C#N)c3)c2F)nn(CO)c1=O` [Compound I-3], the melting point was in the range of 158.9 to 162.2 °C.

Turning to `Cn1c(Cc2ccc(Br)c(Oc3cc(C#N)cc(C(F)F)c3)c2F)nn(COC(=O)CCC(=O)O)c1=O` [Compound I-9, Succinic acid mono-{3-[4-bromo-3-(3-cyano-5-difluoromethyl-phenoxy)-2-fluoro-benzyl]-4-methyl-5-oxo-4,5-dihydro-[1,2,4]triazol-1-ylmethyl}ester], the melting point is 156.7 to 158 °C.

Molecule `Cn1c(Cc2ccc(Cl)c(Oc3cc(Cl)cc(C#N)c3)c2F)nn(COC(=O)CCC(=O)O)c1=O` [Compound I-2, Succinic acid mono-{3-[4-chloro-3-(3-chloro-5-cyano-phenoxy)-2-fluoro-benzyl]-4-methyl-5-oxo-4,5-dihydro-[1,2,4]triazol-1-ylmethyl}ester] registered a melting point of 136.6 to 141.9 °C. Still for that read-out and setting: for `Cn1c(Cc2ccc(Cl)c(Oc3cc(C#N)cc(C(F)F)c3)c2F)nn(COC(=O)CCC(=O)O)c1=O` [Compound I-5, Succinic acid mono-{3-[4-chloro-3-(3-cyano-5-difluoromethyl-phenoxy)-2-fluoro-benzyl]-4-methyl-5-oxo-4,5-dihydro-[1,2,4]triazol-1-ylmethyl}ester] the value was 150.5 to 151.1 °C; for `Cn1c(Cc2ccc(Cl)c(Oc3cc(Cl)cc(C#N)c3)c2F)nn(CO)c1=O` [Compound I-1], 145.8 to 149.5 °C. Still for that read-out and setting: for `CCc1ccc(Cc2nn(COC(=O)CCC(=O)O)c(=O)n2C)c(F)c1Oc1cc(C#N)cc(C(F)F)c1` [Compound I-11, succinic acid mono-{3-[3-(3-cyano-5-difluoromethyl-phenoxy)-4-ethyl-2-fluoro-benzyl]-4-methyl-5-oxo-4,5-dihydro-[1,2,4]triazol-1-ylmethyl}ester] the value was 152.2 to 153.5 °C.

Molecule `Cc1ccc(Cc2nn(COC(=O)CCC(=O)O)c(=O)n2C)c(F)c1Oc1cc(C#N)cc(C(F)F)c1` [Compound I-7, Succinic acid mono-{3-[3-(3-cyano-5-difluoromethyl-phenoxy)-2-fluoro-4-methyl-benzyl]-4-methyl-5-oxo-4,5-dihydro-[1,2,4]triazol-1-ylmethyl}ester] had a melting point of 139.2 to 140.5 °C. Consider `Cn1c(Cc2ccc(Cl)c(Oc3cc(C#N)cc(C(F)F)c3)c2F)n[nH]c1=O` [parent], for which the “AUC (area under concentration vs. time curve, 0–24 h)” value in data set [1] (dose 152 mg/kg (equimolar to I-5 200 mg/kg)) came out at 68800 ng·h/mL; in data set [1] (dose 530 mg/kg (equimolar to I-5 700 mg/kg)), 85400 ng·h/mL. In addition, the concentration at 2 h in data set [1] (dose 152 mg/kg) is 2740 ng/mL; in data set [1] (dose 530 mg/kg), 3180 ng/mL. The concentration at 6 h in data set [1] (dose 152 mg/kg) was 5020 ng/mL; in data set [1] (dose 530 mg/kg), 5970 ng/mL. On to `Cn1c(Cc2ccc(Cl)c(Oc3cc(C#N)cc(C#N)c3)c2F)nn(COC(=O)CCC(=O)O)c1=O` [Compound I-4, Succinic acid mono-{3-[4-chloro-3-(3,5-dicyano-phenoxy)-2-fluoro-benzyl]-4-methyl-5-oxo-4,5-dihydro-[1,2,4]triazol-1-ylmethyl}ester], for which the melting point fell in the range of 141.6 to 143.3 °C.

By melting point is commonly meant the temperature, or range, at which the solid turns liquid.

Values taken from patent publication US7666891B2, “Heterocyclic antiviral compounds” (Roche Palo Alto LLC, priority 2004, dated 2010).
